Laboratory results: PubChem BioAssay (NCI)
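The compound was tested at five concentrations on cells cultured in 96-well plates, with a 48-hour exposure period. TGI marks complete inhibition of growth.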

What was measured:
Test in all cases: DTP human tumour cell line panel, 48 h
SK-OV-3 ovarian = system: SK-OV-3 ovarian
786-0 renal = system: 786-0 renal
KM12 colon = system: KM12 colon
HT29 colon = system: HT29 colon
K-562 leukemia = system: K-562 leukemia
UACC-62 melanoma = system: UACC-62 melanoma
TK-10 renal = system: TK-10 renal
MALME-3M melanoma = system: MALME-3M melanoma
OVCAR-3 ovarian = system: OVCAR-3 ovarian
A549 NSCLC = system: A549 NSCLC
NCI-H226 lung = system: NCI-H226 lung
SNB-75 CNS = system: SNB-75 CNS
EKVX NSCLC = system: EKVX NSCLC
UACC-257 melanoma = system: UACC-257 melanoma
SF-268 CNS = system: SF-268 CNS
OVCAR-4 ovarian = system: OVCAR-4 ovarian
HCT-116 colon = system: HCT-116 colon
DMS 273 small cell lung = system: DMS 273 small cell lung
HCC-2998 colon = system: HCC-2998 colon
MOLT-4 leukemia = system: MOLT-4 leukemia
SW-620 colon = system: SW-620 colon
U251 CNS = system: U251 CNS
SF-295 CNS = system: SF-295 CNS
M14 melanoma = system: M14 melanoma
RXF 393 renal = system: RXF 393 renal
IGROV1 ovarian = system: IGROV1 ovarian
SK-MEL-2 melanoma = system: SK-MEL-2 melanoma
HOP-62 NSCLC = system: HOP-62 NSCLC
SK-MEL-28 melanoma = system: SK-MEL-28 melanoma
HOP-92 NSCLC = system: HOP-92 NSCLC
OVCAR-8 ovarian = system: OVCAR-8 ovarian
ACHN renal = system: ACHN renal
HOP-18 NSCLC = system: HOP-18 NSCLC
DMS 114 small cell lung = system: DMS 114 small cell lung
DLD-1 colon = system: DLD-1 colon
SR leukemia = system: SR leukemia
LXFL 529 NSCLC = system: LXFL 529 NSCLC
OVCAR-5 ovarian = system: OVCAR-5 ovarian
SN12C renal = system: SN12C renal
LOX IMVI melanoma = system: LOX IMVI melanoma
HL-60(TB) leukemia = system: HL-60(TB) leukemia
NCI-H460 lung = system: NCI-H460 lung
KM20L2 colon = system: KM20L2 colon
UO-31 renal = system: UO-31 renal
RXF-631 renal = system: RXF-631 renal
SF-539 CNS = system: SF-539 CNS
NCI-H23 lung = system: NCI-H23 lung
COLO 205 colon = system: COLO 205 colon
CCRF-CEM leukemia = system: CCRF-CEM leukemia
RPMI-8226 leukemia = system: RPMI-8226 leukemia
NCI-H522 lung = system: NCI-H522 lung
SK-MEL-5 melanoma = system: SK-MEL-5 melanoma
A498 renal = system: A498 renal
HCT-15 colon = system: HCT-15 colon
SNB-19 CNS = system: SNB-19 CNS
M19-MEL melanoma = system: M19-MEL melanoma
SNB-78 CNS = system: SNB-78 CNS
XF 498 CNS = system: XF 498 CNS

Measured: TGI

COc1cc(/C=C2\[C@H]3c4c(c(OC)c(C)c(OC)c4OC)C[C@@H](C(=O)N2Cc2ccccc2)N3C(=O)OC(C)C)c(OC)c(C)c1OC
56.2 µM: NCI-H226 lung
not listed: HCT-15 colon | SNB-19 CNS | M19-MEL melanoma | SNB-78 CNS | XF 498 CNS
> 100 µM: all other assays above

C=CCNC(=S)N1c2ccccc2NC(=O)CC1C (stereo not drawn)
not listed: SK-OV-3 ovarian | UACC-257 melanoma | HCC-2998 colon | HOP-92 NSCLC | HOP-18 NSCLC | DLD-1 colon | RXF-631 renal | A498 renal
> 100 µM: all other assays above
